Measured values published in the supplement of paper PMC10307832.

Experiments:
Test in all cases: relative viability (nuclei count vs DMSO), 5 days (fraction); higher = more cells survive
[1] = compound: COc1nc(N)nc2c1ncn2[C@@H]1O[C@H](CO)[C@@H](O)[C@@H]1O [Nelarabine]
Procedure, shortened: (§1)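 Five library-drug doses, separated by factors of √10, were pinned into 1536-well plates holding lung cancer cell lines after an overnight stay at 37 °C. Cells were fixed, permeabilised and Hoechst-stained in one step after 5 days without medium change, then imaged at 4×. Viability compares treated-well with vehicle-well nuclei, counted in MetaXpress, as a median across plates. Passing plates had control CV below 25% and at least one doubling.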

[2] = compound: C=CCn1c(=O)c2cnc(Nc3ccc(N4CCN(C)CC4)cc3)nc2n1-c1cccc(C(C)(C)O)n1 [Adavosertib]
Procedure, shortened: as §1

[3] = compound: COc1nc(N)nc2c1ncn2[C@@H]1O[C@H](CO)[C@@H](O)[C@@H]1O [Nelarabine] + CC(C)C[C@H](NC(=O)[C@H](Cc1ccccc1)NC(=O)c1cnccn1)B(O)O [Bortezomib] (partner 0.002 µM)
Procedure, shortened: (§2)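 Lung cancer cell lines in 1536-well plates got either a single drug or a fixed anchor-drug dose together with five library-drug doses (not always all listed) in √10 steps, by pin tool, on the day after seeding. Nuclei were counted after 5 days, and relative viability is the treated-to-vehicle ratio of nuclei counts. Values are medians of duplicate plates.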

[4] = compound: C=CCn1c(=O)c2cnc(Nc3ccc(N4CCN(C)CC4)cc3)nc2n1-c1cccc(C(C)(C)O)n1 [Adavosertib] + Cc1nc(NC(=O)N2CCC[C@H]2C(N)=O)sc1-c1ccnc(C(C)(C)C(F)(F)F)c1 [Alpelisib] (partner 2 µM)
Procedure, shortened: as §2

Row | Cell Line | relative viability ([1]; 0.01 µM) | relative viability ([1]; 0.03162 µM) | relative viability ([1]; 0.1 µM) | relative viability ([1]; 0.3162 µM) | relative viability ([1]; 1 µM) | relative viability ([2]; 0.01 µM) | relative viability ([2]; 0.03162 µM) | relative viability ([2]; 0.1 µM) | relative viability ([2]; 0.3162 µM) | relative viability ([3]; first compound 0.01 µM) | relative viability ([3]; first compound 0.03162 µM) | relative viability ([3]; first compound 0.1 µM) | relative viability ([3]; first compound 0.3162 µM) | relative viability ([3]; first compound 1 µM) | relative viability ([4]; first compound 0.01 µM) | relative viability ([4]; first compound 0.03162 µM) | relative viability ([4]; first compound 0.1 µM) | relative viability ([4]; first compound 0.3162 µM)
1 | NCI-H1915 | 1.15 | 1.03 | 1.02 | 1 | 1.05 | 0.999 | 1.01 | 1.06 | 0.996 | 1.25 | 0.871 | 1.04 | 0.975 | 0.96 | 1.07 | 1.07 | 1.13 | 1.15
2 | ABC-1 | 1.1 | 0.911 | 0.988 | 1.11 | 0.943 | 0.885 | 0.893 | 0.948 | 0.96 | 0.28 | 0.319 | 0.251 | 0.245 | 0.297 | 0.993 | 1.04 | 1.28 | 1.08
3 | NCI-H358 | 1.1 | 0.928 | 0.804 | 1.06 | 1.05 | 0.838 | 0.785 | 0.752 | 0.467 |  |  |  |  |  | 0.831 | 0.769 | 0.693 | 0.336
4 | HCC-366 | 1.28 | 0.865 | 0.982 | 1.08 | 1.02 | 1.04 | 1.05 | 0.998 | 1.01 | 1.95 | 0.968 | 1.33 | 1.23 | 1.13 | 0.47 | 0.435 | 0.501 | 0.509
5 | EBC-1 | 1.19 | 1.14 | 1.05 | 1.01 | 0.975 | 0.974 | 1.02 | 1.07 | 0.971 | 0.559 | 0.525 | 0.548 | 0.55 | 0.549 | 0.98 | 0.843 | 0.921 | 0.81
6 | NCI-H1650 | 1.13 | 0.999 | 0.845 | 0.978 | 0.928 | 0.867 | 0.981 | 0.943 | 0.472 | 0.173 | 0.213 | 0.231 | 0.196 | 0.233 |  |  |  | 
7 | NCI-H1395 | 0.997 | 0.821 | 1.02 | 0.928 | 0.842 | 0.83 | 0.901 | 0.887 | 0.775 |  |  |  |  |  | 0.975 | 1.1 | 1.03 | 0.732
8 | SW 900 | 0.998 | 0.897 | 1.06 | 1 | 0.896 | 0.738 | 1.07 | 0.885 | 0.49 |  |  |  |  |  |  |  |  | 
9 | NCI-H1666 | 1.05 | 1.15 | 0.978 | 0.97 | 0.967 | 0.975 | 1 | 1.05 | 0.997 | 1.02 | 1.02 | 0.747 | 0.89 | 0.789 | 0.85 | 0.889 | 0.934 | 0.796
10 | COR-L23 | 1.49 | 1.21 | 0.96 | 1.06 | 1.07 | 1.14 | 1.02 | 1.03 | 0.585 | 1.33 | 1.08 | 1.08 | 0.942 | 0.983 | 0.778 | 0.687 | 0.729 | 0.243
11 | ChaGo-K-1 | 1.05 | 0.912 | 0.962 | 0.964 | 0.962 | 0.947 | 0.995 | 1.05 | 0.918 | 0.997 | 0.85 | 1.26 | 0.93 | 0.925 |  |  |  | 
12 | SW 1573 | 1.13 | 1.04 | 0.995 | 1.05 | 0.979 | 0.99 | 1.03 | 1.14 | 0.965 | 1.63 | 1.12 | 1.18 | 1.25 | 1.1 | 0.724 | 0.786 | 0.751 | 0.761
13 | NCI-H23 | 1.22 | 0.911 | 1.01 | 0.987 | 0.96 | 0.925 | 0.98 | 0.659 | 0.313 | 1.38 | 0.97 | 1.13 | 0.957 | 1.1 | 0.639 | 0.775 | 0.591 | 0.346
14 | NCI-H1299 | 1.07 | 1.07 | 1.04 | 1.07 | 1.03 | 1.03 | 0.999 | 1.04 | 0.789 | 1.08 | 1.09 | 1.05 | 1.06 | 1.01 | 1.06 | 0.979 | 1.07 | 0.997
15 | NCI-H1944 | 1.15 | 0.984 | 1 | 0.987 | 0.869 | 0.953 | 0.926 | 0.959 | 0.807 |  |  |  |  |  | 0.822 | 0.774 | 0.645 | 0.666
16 | PC-3 [JPC-3] | 1.08 | 1.09 | 1.14 | 1.06 | 1.06 | 1.04 | 1.04 | 1.04 | 1.05 | 1.08 | 0.905 | 0.826 | 0.743 | 0.776 | 0.99 | 1.03 | 1.08 | 1.07
17 | NCI-H2126 | 1.08 | 0.952 | 0.961 | 1.03 | 0.988 | 1.01 | 1.04 | 0.969 | 1.07 | 1.18 | 1.14 | 1.11 | 1.12 | 1.01 | 0.75 | 0.767 | 0.675 | 0.752

Row | Cell Line | relative viability ([1]; 0.01 µM) | relative viability ([1]; 0.03162 µM) | relative viability ([1]; 0.1 µM) | relative viability ([1]; 0.3162 µM) | relative viability ([1]; 1 µM) | relative viability ([2]; 0.01 µM) | relative viability ([2]; 0.03162 µM) | relative viability ([2]; 0.1 µM) | relative viability ([2]; 0.3162 µM) | relative viability ([3]; first compound 0.01 µM) | relative viability ([3]; first compound 0.03162 µM) | relative viability ([3]; first compound 0.1 µM) | relative viability ([3]; first compound 0.3162 µM) | relative viability ([3]; first compound 1 µM) | relative viability ([4]; first compound 0.01 µM) | relative viability ([4]; first compound 0.03162 µM) | relative viability ([4]; first compound 0.1 µM) | relative viability ([4]; first compound 0.3162 µM)
18 | HCC-827 | 1.03 | 0.93 | 0.97 | 0.828 | 0.823 | 1.04 | 1.06 | 1.08 | 1.03 | 1.09 | 0.956 | 1.02 | 0.914 | 0.783 | 1 | 1.05 | 0.995 | 0.838
19 | H3255 | 0.998 | 1.08 | 0.987 | 0.963 | 0.97 | 0.888 | 1.07 | 1.02 | 1.08 | 1.06 | 0.868 | 0.897 | 0.722 | 0.696 | 0.648 | 0.689 | 0.716 | 0.668
20 | NCI-H838 | 1.3 | 0.893 | 0.986 | 1.05 | 1.04 | 0.978 | 0.919 | 0.996 | 0.948 | 1.06 | 0.748 | 0.87 | 0.868 | 0.7 | 1.01 | 1.01 | 0.996 | 1.08
21 | NCI-H1734 | 1.16 | 0.96 | 0.997 | 1.02 | 1.05 | 1.03 | 0.972 | 1 | 0.676 | 1.1 | 0.961 | 0.949 | 0.9 | 0.955 | 0.728 | 0.69 | 0.707 | 0.624
22 | HCC-44 | 1 | 0.949 | 0.997 | 0.947 | 0.867 | 0.927 | 0.987 | 0.971 | 0.984 | 1.05 | 0.845 | 0.866 | 0.924 | 0.924 | 0.881 | 0.864 | 0.813 | 0.958
23 | HOP-62 | 1.02 | 1.02 | 1.06 | 1.01 | 1.01 | 1.03 | 1.1 | 1.08 | 1.18 | 1.46 | 0.392 | 1.11 | 1.18 | 1.02 | 0.924 | 1.02 | 1.14 | 0.955
24 | NCI-H3122 | 1.1 | 0.929 |  | 1.06 | 1.05 | 0.987 | 0.95 | 1.04 | 1.03 | 1.03 | 0.872 |  | 1.03 | 1.02 | 0.763 | 0.656 | 0.83 | 0.84
25 | NCI-H2405 | 1.07 | 1.02 | 0.924 | 0.982 | 0.947 | 0.924 | 0.993 | 1.02 | 1.04 | 1.06 | 0.943 | 0.908 | 1.03 | 0.954 | 0.765 | 0.878 | 0.874 | 0.764
26 | LK-2 | 1.28 |  | 0.978 | 1.09 | 1.14 | 0.994 | 1.16 | 1.08 | 1.05 |  |  |  |  |  | 1.03 | 1.23 | 1.14 | 1.1
27 | NCI-H1648 | 0.713 | 0.929 | 0.776 | 1.11 | 0.881 | 0.907 | 0.847 | 0.838 | 0.71 |  |  |  |  |  |  |  |  | 
28 | NCI-H1623 | 0.869 | 1.12 | 0.965 | 0.979 | 0.931 | 0.895 | 0.915 | 0.949 | 1.01 |  |  |  |  |  |  |  |  | 
29 | NCI-H522 | 1.01 | 0.949 | 1.09 | 0.843 | 1.05 | 1.04 | 0.975 | 1.05 | 1.06 |  |  |  |  |  |  |  |  | 
30 | NCI-H2170 | 1.16 | 0.912 | 0.956 | 1.07 | 1 | 1.03 | 0.959 | 0.888 | 0.819 |  |  |  |  |  | 0.849 | 0.804 | 0.678 | 0.705
31 | SK-MES-1 | 1.15 | 1.09 | 1.01 | 1.09 | 1.04 | 0.989 | 1.01 | 0.931 | 0.528 |  |  |  |  |  | 0.956 | 0.844 | 0.924 | 0.618
32 | NCI-H2342 | 1.07 | 0.833 | 1.01 | 0.969 | 0.99 | 1.01 | 1.02 | 0.986 | 0.96 |  |  |  |  |  |  |  |  | 
33 | A549 | 1.19 | 1.04 | 1.02 | 1 | 0.911 | 0.933 | 0.984 | 1 | 1.01 |  |  |  |  |  | 0.813 | 0.896 | 0.957 | 0.804
34 | NCI-H1793 | 1.09 | 0.775 | 1.1 | 1.09 | 1 | 0.787 | 0.835 | 0.885 | 1.09 |  |  |  |  |  | 0.746 | 0.6 | 0.752 | 0.637
